In patent US7923471B2, “Method of treating dry eye disorders and uveitis” (Alcon, Inc., priority 2004, dated 2011):
Marks after values point to notes of the source that are not given here.

Assays:
[1] = system: endotoxin-induced uveitis in rats; test: Endotoxin-induced uveitis in rats: ocular neutrophil (PMN) content by myeloperoxidase activity; assay type: in vivo, female Lewis rats; conditions: 24 h post endotoxin; for Myeloperoxidase (x ± standard deviation): 5 μL topical ocular at endotoxin injection and 4 h later, vehicle 164 ± 46
Description: Compound 1 was evaluated for its ability to suppress neutrophil influx into the rat eye in a model of endotoxin-induced uveitis. The compound was prepared at concentrations of 0.01%, 0.1%, 1.0% w/v in an ophthalmic suspension vehicle, and dexamethasone (Sigma-Aldrich Company, St. Louis, Mo.) formulated in the same vehicle served as reference compound. Uveitis was induced by subplantar injection of endotoxin (200 μg in 0.1 mL saline) in the right hind paw of female Lewis rats (5/group). Test compound of vehicle (5 μL) was administered topically to each eye of the experimental animals at the time of endoxtoxin injection and again 4 hours later. Twenty four hours post endotoxin injection, animals were sacrificed by CO2 inhalation, and total ocular neutrophil (PMN) content was assessed indirectly by determination of myeloperoxidase activity. Ocular PMN content in each group was then compared with that observed in the vehicle-treated group using Dunnet's t-test.

[2] = system: rabbit model of dry eye; test: Rabbit model of dry eye (lacrimal gland ConA injection followed by desiccation): corneal staining with methylene blue; assay type: in vivo, New Zealand white rabbits; conditions: 50 μl topical twice a day, ConA-injected rabbit eyes, 72 h desiccation
Description: Compound 1 was evaluated in a rabbit model of dry eye. New Zealand white rabbits (approximately 2.5 kg; obtained from Myrtle's Rabbitry, Thompson Station, Tenn.) were randomized and dosed topically twice a day with either 50 μl of compound 1 formulated in 0.064%/BSS® at concentrations of 1, 10, or 100 μM, or with 0.064%/BSS® vehicle. After 24 h the rabbits were anesthetized by subcutaneous administration of ketamine hydrochloride (30 mg/kg) and xylazine (6 mg/kg) and each rabbit received bilateral injections of Conconavilin A (ConA) (300 μg/30 μl) or saline (30 μl). Desiccation was initiated one day following lacrimal gland injection by placing conscious animals in an environmental chamber (20-30% humidity, […]). Following 72 hours of exposure to environment, the animals were assessed for corneal staining upon exposure of the cornea to the dye methylene blue; less staining indicates less damage to the cornea. The rabbits were anesthetized by subcutaneous administration of ketamine hydrochloride (30 mg/kg) and xylazine (6 mg/kg). Sutures were placed in each upper and lower eyelid and lifted to form a corneal/conjunctival cup. Methylene blue dye (1 mL, 1% in distilled water) was added to the cup for five minutes and the excess removed by washing with 200 mL of BSS®. The contralateral eye was then stained using the same procedure. Rabbits were euthanized immediately following the staining procedure and the eyes were excised. The corneas were isolated and a 9.5 mm punch of the cornea was placed overnight in 2 mL of acetone/saturated sodium sulfate (7:3 v/v). The concentration of the extracted dye was determined spectrophotometrically by measuring its absorbance at λ=660 nanometers (A660). Percent inhibition was calculated as {1−[(A660test item−A660Normal)/(A660BSS−A660Normal)]}×100, where A660test item is the absorbance of dye from ConA-injected eyes dosed with compound 1, A660Normal is the absorbance of dye from saline-injected eyes, and A660BSS is the absorbance of dye in ConA-injected eyes dosed with 0.064% ethanol/BSS® solution vehicle. A higher percent inhibition of staining indicates more protection of the cornea from damage.
(§1) The % inhibition of corneal staining and TBUT data are presented below in table 1, with 15S-HETE (Biomol Research Laboratories, Plymouth Meeting, Pa.) treatment of ConA-injected eyes used as a positive control.

[3] = system: neutrophils; conditions: compared with lipoxin A4; cited from earlier work
[4] = system: rabbit model of dry eye; test: Rabbit model of dry eye (lacrimal gland ConA injection followed by desiccation): tear breakup time (TBUT); assay type: in vivo, New Zealand white rabbits; conditions: ConA-injected rabbit eyes, baseline = saline-injected, vehicle-treated eyes
Description: A second group of animals was evaluated for tear film quality by measuring each animal's tear breakup time (TBUT). Using the same experimental protocol as above for inducing rabbit ocular damage, TBUT was determined daily by instilling 5 μL of sodium fluorescein into the cul de sac and manually blinking the lids to distribute the fluroescein within the tear film. Under slit lamp observation, the eye was held open and the time whereby one or more black spots or streaks appeared in the precorneal tear film was recorded. The rabbits were euthanized 3 days following ConA injection. Larger TBUT values indicate better tear film quality and more protection from ocular damage. TBUT data is expressed as % of baseline, with baseline TBUT being that observed for saline-injected, vehicle-treated eyes.
as §1

Compound | % inhibition (myeloperoxidase / ocular PMN content vs vehicle) ([1]; 0.1 % w/v topical ocular) | Myeloperoxidase (x ± standard deviation) ([1]; 0.1 % w/v) [μM/min/100 mg] | % Inhibition of Corneal Staining, ±S.D. ([2]; 1 μM) | inhibition of LTB4-induced chemotaxis of neutrophils [3] | TBUT, % of Baseline, ±S.D. ([4]; 1 μM topical twice a day) | further results
COC(=O)CCC[C@H](O)[C@H](O)CO [Compound 1] | 2% | 161 ± 37 | 75 ± 12^b % | as potently as lipoxin A4 | 67 ± 17^b % of Baseline | % inhibition (myeloperoxidase / ocular PMN content vs vehicle) ([1]; 0.01 % w/v topical ocular): 13%; Myeloperoxidase (x ± standard deviation) ([1]; 0.01 % w/v): 143 ± 64 μM/min/100 mg; % inhibition (myeloperoxidase / ocular PMN content vs vehicle) ([1]; 1.0 % w/v topical ocular): 41* %; Myeloperoxidase (x ± standard deviation) ([1]; 1.0 % w/v): 97 ± 35 μM/min/100 mg; % Inhibition of Corneal Staining, ±S.D. ([2]; 10 μM): 54 ± 9^b,c %; % Inhibition of Corneal Staining, ±S.D. ([2]; 100 μM): 38 ± 34^b,c %; TBUT, % of Baseline, ±S.D. ([4]; 10 μM topical twice a day): 45 ± 17^b % of Baseline; TBUT, % of Baseline, ±S.D. ([4]; 100 μM topical twice a day): 51 ± 18^b % of Baseline
CCCCC[C@H](O)[C@H](O)CO [Compound 2] | – | – | – | as potently as lipoxin A4 | – | –
CCCCC[C@H](O)/C=C/C=C\C/C=C\C/C=C\CCCC(=O)O [Compound 15S-HETE, 15S-HETE, reference compound] | – | – | 77 ± 18^b % | – | 54 ± 21^b % of Baseline | –
C[C@@H]1C[C@H]2[C@@H]3CCC4=CC(=O)C=C[C@]4(C)[C@@]3(F)[C@@H](O)C[C@]2(C)[C@@]1(O)C(=O)CO [Dexamethasone, dexamethasone, reference compound] | 91* % | 15 ± 7 | – | – | – | –
